Results taken from patent US20070099941A1, “N-arylalkyl-thienopyrimidin-4-amines and analogs as activators of caspases and inducers of apoptosis and the use thereof” (Cytovia, Inc., priority 2005, published 2007).

Tests used:
Assay type in all cases: cell-based
[1] = tested on: human breast cancer cell line T-47D; experiment: Caspase cascade activation assay in T-47D cells; details: T47D, 24 h or 48 h incubation, read-out: Caspase Activation Potency EC50 T-47D
Description: (§1) Human breast cancer cell lines T-47D and human lung cancer cell line H1299 were grown according to media component mixtures designated by American Type Culture Collection+10% FCS (Invitrogen Corporation), in a 5% CO2-95% humidity incubator at 37° C. T-47D and H1299 cells were maintained at a cell density between 50 and 80% confluency at a cell density of 0.1 to 0.6×10^6 cells/mL. Cells were harvested at 600×g and resuspended at 0.65×10^6 cells/mL into appropriate media+10% FCS. An aliquot of 22.5 μL of cells was added to a well of a 384-well microtiter plate containing 2.5 μL of a 10% DMSO in RPMI-1640 media solution containing 0.16 to 100 μM of N-(3,4-methylenedioxybenzyl)-6-phenylthieno[3,2-d]pyrimidin-4-amine or other test compound (0.016 to 10 μM final). An aliquot of 22.5 μL of cells was added to a well of a 384-well microtiter plate containing 2.5 μL of a 10% DMSO in RPMI-1640 media solution without test compound as the control sample. The samples were mixed by agitation and then incubated at 37° C. for 24 h or 48 h in a 5% CO2-95% humidity incubator. After incubation, the samples were removed from the incubator and 25 μL of a solution containing 14 μM of N-(Ac-DEVD)-N′-ethoxycarbonyl-R110 (SEQ ID No.:1) fluorogenic substrate (Cytovia, Inc.; WO99/18856), 20% sucrose (Sigma), 20 mM DTT (Sigma), 200 mM NaCl (Sigma), 40 mM Na PIPES buffer pH 7.2 (Sigma), and 500 μg/mL lysolecithin (Calbiochem) was added. The samples were mixed by agitation and incubated at room temperature. Using a fluorescent plate reader (Model SPECTRAfluor Plus, Tecan), an initial reading (T=0) was made approximately 1-2 min after addition of the substrate solution, employing excitation at 485 nm and emission at 530 nm, to determine the background fluorescence of the control sample. After the 3 h incubation, the samples were read for fluorescence as above (T=3 h).
(§2) The Relative Florescence Unit values (RFU) were used to calculate the sample readings as follows: RFU(T=3h)−Control RFU(T=0)=Net RFU(T=3h)
(§3) The activity of caspase cascade activation was determined by the ratio of the net RFU value for N-(3,4-methylenedioxybenzyl)-6-phenylthieno[3,2-d]pyrimidin-4-amine (Example A) or other test compound to that of control samples. The EC50 (nM) was determined by a sigmoidal dose-response calculation (Prism 3.0, GraphPad Software Inc.).

[2] = tested on: human lung cancer cell line H1299; experiment: Caspase cascade activation assay in H1299 cells; details: NCI-H1299, 24 h or 48 h incubation, read-out: Caspase Activation Potency EC50 H1299
Description: as §1, §2, §3

[3] = tested on: human breast cancer cell line MX-1; experiment: Inhibition of cell proliferation (GI50, CellTiter-Glo) in MX-1 cells; details: MX1 cells, 48 h, dose for 50% inhibition of cell proliferation
Description: (§4) Human breast cancer cell lines T-47D, MX-1 and MDAMB435, human colon cancer cell line HT29, and human lung cancer cell line H1299 were grown and harvested as in Example 26. An aliquot of […] of cells (4.4×10^4 cells/mL) was added to a well of a 96-well microtiter plate containing 5 μL of a 10% DMSO in RPMI-1640 media solution containing 10 nM to 100 μM of N-(3,4-methylenedioxybenzyl)-6-phenylthieno[3,2-d]pyrimidin-4-amine (1 nM to 10 μM final). An aliquot of 45 μL of cells was added to a well of a 96-well microtiter plate containing 5 μL of a 10% DMSO in RPMI-1640 media solution without compound as the control sample for maximal cell proliferation (LMax). The samples were mixed by agitation and then incubated at 37° C. for 48 h in a 5% CO2-95% humidity incubator. After incubation, the samples were removed from the incubator and 25 μL of CellTiter-Glo™ reagent (Promega) was added. The samples were mixed by agitation and incubated at room temperature for 10-15 min. Plates were then read using a luminescent plate reader (Model SPECTRAfluor Plus, Tecan) to give Ltest values.
(§5) Baseline for GI50 (dose for 50% inhibition of cell proliferation) of initial cell numbers was determined by adding an aliquot of 45 μL of cells or 45 μL of media, respectively, to wells of a 96-well microtiter plate containing 5 μL of a 10% DMSO in RPMI-1640 media solution. The samples were mixed by agitation and then incubated at 37° C. for 0.5 h in a 5% CO2-95% humidity incubator. After incubation, the samples were removed from the incubator and 25 μL of CellTiter-Glo™ reagent (Promega) was added. The samples were mixed by agitation and incubated at 37° C. for 10-15 min at room temperature in a 5% CO2-95% humidity incubator. Fluorescence was read as above, (Lstart) defining luminescence for initial cell number used as baseline in GI50 determinations.
(§6) GI50 (dose for 50% inhibition of cell proliferation) is the concentration where [(LTest−Lstart)/(LMax−Lstart)]=0.5.

[4] = tested on: human breast cancer cell line MDAMB435; experiment: Inhibition of cell proliferation (GI50, CellTiter-Glo) in MDAMB435 cells; details: MDA-MB-435, 48 h, dose for 50% inhibition of cell proliferation
Description: as §4, §5, §6

[5] = tested on: human lung cancer cell line H1299; experiment: Inhibition of cell proliferation (GI50, CellTiter-Glo) in H1299 cells; details: NCI-H1299, 48 h, dose for 50% inhibition of cell proliferation
Description: as §4, §5, §6

[6] = tested on: human colon cancer cell line HT29; experiment: Inhibition of cell proliferation (GI50, CellTiter-Glo) in HT29 cells; details: HT-29, 48 h, dose for 50% inhibition of cell proliferation
Description: as §4, §5, §6

[7] = tested on: human breast cancer cell line T-47D; experiment: Inhibition of cell proliferation (GI50, CellTiter-Glo) in T-47D cells; details: T47D cells, 48 h, dose for 50% inhibition of cell proliferation
Description: as §4, §5, §6

Row | EC50 [1] | EC50 [2] | Structure (SMILES) | also measured
1 | 1.4 µM | 2.68 µM | COc1ccc(CNc2ncnc3cc(-c4ccccc4)sc23)cc1 [Example 10, N-(4-Methoxybenzyl)-6-phenylthieno[3,2-d]pyrimidin-4-amine] | 
2 | > 10 µM | > 10 µM | Oc1ccc(CNc2ncnc3cc(Br)sc23)cc1 [Example 24, N-(4-Hydroxybenzyl)-6-bromothieno[3,2-d]-pyrimidin-4-amine] | 
3 | 0.147 µM | 0.157 µM | CN(Cc1ccc2c(c1)OCO2)c1ncnc2cc(-c3cccnc3)sc12 [Example 22, N-(3,4-Methylenedioxybenzyl)-N-methyl-6-(pyridin-3-yl)thieno[3,2-d]pyrimidin-4-amine] | 
4 | > 10 µM | > 10 µM | COc1cc(OC)c(CNc2ncnc3cc(I)sc23)c(OC)c1 [Example 17, N-(2,4,6-Trimethoxybenzyl)-6-iodothieno[3,2-d]pyrimidin-4-amine] | 
5 | 4.3 µM | 5.08 µM | COc1ccc(CNc2ncnc3cc(I)sc23)cc1OC [Example 14, N-(3,4-Dimethoxybenzyl)-6-iodothieno[3,2-d]pyrimidin-4-amine] | 
6 | > 10 µM | > 10 µM | c1cc(-c2cc3ncnc(NCc4ccc5c(c4)OCO5)c3s2)ccn1 [Example 2, N-(3,4-Methylenedioxybenzyl)-6-(pyridin-4-yl)thieno[3,2-d]pyrimidin-4-amine] | 
7 | > 10 µM | > 10 µM | Cc1nc(NCc2ccc3c(c2)OCO3)c2sc(-c3cccnc3)cc2n1 [Example 23, N-(3,4-Methylenedioxybenzyl)-2-methyl-6-(pyridin-3-yl)thieno[3,2-d]pyrimidin-4-amine] | 
8 | > 10 µM | > 10 µM | Cc1c(I)sc2c(NCc3ccc4c(c3)OCO4)ncnc12 [Example 7, N-(3,4-Methylenedioxybenzyl)-6-iodo-7-methylthieno[3,2-d]pyrimidin-4-amine] | 
9 | 2.3 µM | 2.57 µM | COc1ccc(OC)c(CNc2ncnc3cc(I)sc23)c1 [Example 18, N-(2,5-Dimethoxybenzyl)-6-iodothieno[3,2-d]pyrimidin-4-amine] | 
10 | > 10 µM | > 10 µM | COc1ccc(CNc2ncnc3cc(-c4cccnc4)sc23)cc1OC [Example 15, N-(3,4-Dimethoxybenzyl)-6-(pyridin-3-yl)thieno[3,2-d]pyrimidin-4-amine] | 
11 | > 10 µM | > 10 µM | COc1ccc(OC)c(CNc2ncnc3cc(-c4cccnc4)sc23)c1 [Example 20, N-(2,5-Dimethoxybenzyl)-6-(pyridin-3-yl)thieno[3,2-d]pyrimidin-4-amine] | 
12 | 5.13 µM | 2.89 µM | COc1cc(OC)c(CNc2ncnc3cc(-c4cccnc4)sc23)c(OC)c1 [Example 19, N-(2,4,6-Trimethoxybenzyl)-6-(pyridin-3-yl)thieno[3,2-d]pyrimidin-4-amine] | 
13 | 2.43 µM | 2.39 µM | c1coc(-c2cc3ncnc(NCc4ccc5c(c4)OCO5)c3s2)c1 [Example 4, N-(3,4-Methylenedioxybenzyl)-6-(furan-2-yl)thieno[3,2-d]pyrimidin-4-amine] | 
14 | 2.8 µM | 2.79 µM | c1nc(NCc2ccc3c(c2)OCO3)c2sc(-c3ccoc3)cc2n1 [Example 12, N-(3,4-Methylenedioxybenzyl)-6-(furan-3-yl)thieno[3,2-d]pyrimidin-4-amine] | 
15 | 4.32 µM | 5.1 µM | c1ccc(-c2cc3ncnc(NCc4ccc5c(c4)OCO5)c3s2)nc1 [Example 6, N-(3,4-Methylenedioxybenzyl)-6-(pyridin-2-yl)thieno[3,2-d]pyrimidin-4-amine] | 
16 | > 10 µM | > 10 µM | c1nc(NCc2ccc3c(c2)OCO3)c2sccc2n1 [Example 1, N-(3,4-Methylenedioxybenzyl)-thieno[3,2-d]pyrimidin-4-amine] | 
17 | > 10 µM | > 10 µM | Cc1nc(NCc2ccc3c(c2)OCO3)c2sc(Br)cc2n1 [Example 21, N-(3,4-Methylenedioxybenzyl)-6-bromo-2-methylthieno[3,2-d]pyrimidin-4-amine] | 
18 | 1.56 µM | 5.09 µM | Ic1cc2ncnc(NCc3ccc4c(c3)OCO4)c2s1 [Example 3, N-(3,4-Methylenedioxybenzyl)-6-iodo-thieno[3,2-d]pyrimidin-4-amine] | GI50 [3]: 2.5 µM; GI50 [4]: 0.997 µM; GI50 [5]: 1.04 µM; GI50 [6]: 2.5 µM; GI50 [7]: 2.07 µM
19 | > 10 µM | > 10 µM | Cc1c(-c2ccccc2)sc2c(NCc3ccc4c(c3)OCO4)ncnc12 [Example 8, N-(3,4-Methylenedioxybenzyl)-7-methyl-6-phenylthieno[3,2-d]pyrimidin-4-amine] | 
20 | > 10 µM | > 10 µM | Brc1cc2ncnc(NCc3ccc4c(c3)OCO4)c2s1 [Example 11, N-(3,4-Methylenedioxybenzyl)-6-bromothieno[3,2-d]pyrimidin-4-amine] | 
21 | 5.39 µM | 5.43 µM | c1ncc(-c2cc3ncnc(NCc4ccc5c(c4)OCO5)c3s2)cn1 [Example 13, N-(3,4-Methylenedioxybenzyl)-6-(pyrimidin-5-yl)thieno[3,2-d]pyrimidin-4-amine] | 
22 | > 10 µM | > 10 µM | Oc1ccc(CNc2ncnc3cc(-c4cccnc4)sc23)cc1 [Example 25, N-(4-Hydroxybenzyl)-6-(pyridin-3-yl)thieno[3,2-d]-pyrimidin-4-amine] | 
23 | > 10 µM | > 10 µM | COc1ccc(CNc2ncnc3cc(I)sc23)cc1 [Example 9, N-(4-Methoxybenzyl)-6-iodothieno[3,2-d]pyrimidin-4-amine] | 
24 | 1.29 µM | 2.87 µM | COc1ccc(CNc2ncnc3cc(I)sc23)c(OC)c1 [Example 16, N-(2,4-Dimethoxybenzyl)-6-iodothieno[3,2-d]pyrimidin-4-amine] | 
